Measurements from the NIST ThermoML archive (doi:10.1016/j.tca.2006.04.022).

Assay: molar heat capacity at constant pressure
Conditions: 101.33 kPa, Vacuum adiabatic calorimetry

CCOS(=O)(=O)[O-].CCn1cc[n+](C)c1 [1-ethyl-3-methylimidazolium ethyl sulfate]
Conditions | molar heat capacity at constant pressure [J/K/mol]
79.23 K, Glass | 127.8
79.7 K, Glass | 128.6
80.51 K, Glass | 129.4
81.67 K, Glass | 130.9
82.84 K, Glass | 131.5
83.99 K, Glass | 133.2
85.31 K, Glass | 135.2
86.78 K, Glass | 136.3
88.25 K, Glass | 137.9
89.7 K, Glass | 138.8
91.13 K, Glass | 141.2
92.56 K, Glass | 142.2
93.97 K, Glass | 143.4
95.39 K, Glass | 145.2
96.79 K, Glass | 146.4
98.17 K, Glass | 147.5
99.54 K, Glass | 149.6
100.91 K, Glass | 151
102.27 K, Glass | 151.6
103.61 K, Glass | 152.9
104.96 K, Glass | 154.3
106.29 K, Glass | 155.3
107.62 K, Glass | 155.8
108.95 K, Glass | 157.3
110.26 K, Glass | 158.3
111.57 K, Glass | 159.1
112.87 K, Glass | 160.6
114.17 K, Glass | 162.4
115.46 K, Glass | 163.1
116.74 K, Glass | 163.6
118.02 K, Glass | 165.2
119.29 K, Glass | 166.8
120.55 K, Glass | 167.9
121.82 K, Glass | 168.9
123.06 K, Glass | 170.1
124.32 K, Glass | 170.7
125.55 K, Glass | 172.1
126.8 K, Glass | 173.9
128.22 K, Glass | 174.7
129.84 K, Glass | 176.7
131.45 K, Glass | 178.2
133.04 K, Glass | 178.9
134.63 K, Glass | 180
136.21 K, Glass | 181.3
137.77 K, Glass | 183.2
139.34 K, Glass | 184.6
140.89 K, Glass | 185.1
142.73 K, Glass | 187.4
144.86 K, Glass | 189.6
146.97 K, Glass | 191.6
149.07 K, Glass | 194.6
151.16 K, Glass | 196.7
153.21 K, Glass | 198.7
155.27 K, Glass | 200.9
157.3 K, Glass | 202.8
159.33 K, Glass | 203.6
161.34 K, Glass | 205.9
163.34 K, Glass | 208.6
165.33 K, Glass | 210.2
167.3 K, Glass | 212.6
169.27 K, Glass | 214.9
171.23 K, Glass | 216.9
173.18 K, Glass | 218.1
175.11 K, Glass | 220.4
177.05 K, Glass | 223.2
178.98 K, Glass | 226
180.91 K, Glass | 229.3
182.83 K, Glass | 231.6
184.74 K, Glass | 234.3
186.65 K, Glass | 238
188.56 K, Glass | 243.9
190.42 K, Glass | 251.8
192.11 K, Glass | 273.4
193.57 K, Glass | 313.7
194.94 K, Glass | 340.7
196.36 K, Liquid | 346.8
197.81 K, Liquid | 347.7
199.27 K, Liquid | 348.4
200.76 K, Liquid | 349.4
202.25 K, Liquid | 349.9
203.79 K, Liquid | 350.5
205.33 K, Liquid | 350.9
206.9 K, Liquid | 351.5
208.47 K, Liquid | 351.9
210.06 K, Liquid | 352.4
211.66 K, Liquid | 352.8
213.18 K, Liquid | 353.2
214.52 K, Liquid | 353.7
215.86 K, Liquid | 354.1
217.18 K, Liquid | 354.5
218.5 K, Liquid | 354.9
219.81 K, Liquid | 355.4
221.12 K, Liquid | 355.7
222.41 K, Liquid | 356.1
223.71 K, Liquid | 356.5
225 K, Liquid | 356.8
226.27 K, Liquid | 357.1
227.54 K, Liquid | 357.5
228.79 K, Liquid | 357.8
230.03 K, Liquid | 358.1
231.26 K, Liquid | 358.4
232.46 K, Liquid | 359
233.66 K, Liquid | 359.3
234.84 K, Liquid | 359.6
236.02 K, Liquid | 359.8
237.19 K, Liquid | 360.2
238.37 K, Liquid | 360.5
239.54 K, Liquid | 361
240.7 K, Liquid | 361.3
241.86 K, Liquid | 361.5
243.01 K, Liquid | 361.9
244.15 K, Liquid | 362.2
245.29 K, Liquid | 362.5
246.43 K, Liquid | 363.1
247.58 K, Liquid | 363.5
248.73 K, Liquid | 363.9
249.88 K, Liquid | 364.2
251.02 K, Liquid | 364.5
252.17 K, Liquid | 364.8
253.31 K, Liquid | 365.5
254.45 K, Liquid | 365.8
255.6 K, Liquid | 366.1
256.73 K, Liquid | 366.3
257.87 K, Liquid | 366.8
259 K, Liquid | 367.1
260.13 K, Liquid | 367.4
261.27 K, Liquid | 367.6
262.4 K, Liquid | 367.8
263.53 K, Liquid | 368
264.66 K, Liquid | 368.3
265.8 K, Liquid | 368.7
266.93 K, Liquid | 369.1
268.06 K, Liquid | 369.4
269.19 K, Liquid | 369.5
270.33 K, Liquid | 369.9
271.45 K, Liquid | 370.3
272.58 K, Liquid | 370.8
273.71 K, Liquid | 371
274.83 K, Liquid | 371.2
275.94 K, Liquid | 371.5
277.06 K, Liquid | 371.8
278.18 K, Liquid | 372
279.28 K, Liquid | 372.4
280.39 K, Liquid | 373
281.5 K, Liquid | 373.1
282.62 K, Liquid | 373.5
283.72 K, Liquid | 373.8
284.83 K, Liquid | 374.2
285.95 K, Liquid | 374.5
287.05 K, Liquid | 374.7
288.15 K, Liquid | 375
289.26 K, Liquid | 375.4
290.37 K, Liquid | 375.6
291.47 K, Liquid | 376
292.58 K, Liquid | 376.1
293.69 K, Liquid | 376.5
294.79 K, Liquid | 376.8
295.9 K, Liquid | 377
297 K, Liquid | 377.4
298.11 K, Liquid | 378
299.22 K, Liquid | 378.2
300.32 K, Liquid | 378.6
301.43 K, Liquid | 378.9
302.54 K, Liquid | 379.1
303.64 K, Liquid | 379.3
304.74 K, Liquid | 379.6
305.86 K, Liquid | 379.9
306.96 K, Liquid | 380.1
308.07 K, Liquid | 380.3
309.18 K, Liquid | 380.4
310.29 K, Liquid | 380.8
311.4 K, Liquid | 380.9
312.52 K, Liquid | 381.2
313.63 K, Liquid | 381.6
314.75 K, Liquid | 381.8
315.85 K, Liquid | 382
316.97 K, Liquid | 382.3
318.08 K, Liquid | 382.7
319.19 K, Liquid | 383
320.31 K, Liquid | 383.1
321.42 K, Liquid | 383.4
322.53 K, Liquid | 383.6
323.66 K, Liquid | 383.9
324.75 K, Liquid | 383.9
325.84 K, Liquid | 384.4
326.92 K, Liquid | 384.6
327.99 K, Liquid | 384.8
329.08 K, Liquid | 384.9
330.17 K, Liquid | 385.1
331.26 K, Liquid | 385.6
332.35 K, Liquid | 385.9
333.43 K, Liquid | 386.1
334.52 K, Liquid | 386.5
335.6 K, Liquid | 386.6
336.68 K, Liquid | 386.9
337.77 K, Liquid | 387.3
338.86 K, Liquid | 387.4
339.94 K, Liquid | 387.8
341.04 K, Liquid | 388.1
342.13 K, Liquid | 388.3
343.22 K, Liquid | 388.6
344.31 K, Liquid | 388.9
345.4 K, Liquid | 389.2
346.49 K, Liquid | 389.5
347.58 K, Liquid | 389.7
348.65 K, Liquid | 390
349.73 K, Liquid | 390.2
350.82 K, Liquid | 390.5
351.91 K, Liquid | 390.8
353.01 K, Liquid | 391.3
354.11 K, Liquid | 391.6
355.22 K, Liquid | 392
356.31 K, Liquid | 392.3
357.42 K, Liquid | 392.5
358.53 K, Liquid | 392.7
359.63 K, Liquid | 392.8
360.75 K, Liquid | 392.9
361.87 K, Liquid | 393.1
363 K, Liquid | 393.4
364.13 K, Liquid | 393.5
365.29 K, Liquid | 393.6
366.38 K, Liquid | 393.9
367.47 K, Liquid | 394.1
368.52 K, Liquid | 394.5
369.63 K, Liquid | 394.7
370.76 K, Liquid | 394.9
371.78 K, Liquid | 395.1
372.82 K, Liquid | 395.3
373.9 K, Liquid | 395.6
374.98 K, Liquid | 395.8
376.02 K, Liquid | 396.2
377.08 K, Liquid | 396.5
378.13 K, Liquid | 396.8
379.52 K, Liquid | 397.1
380.42 K, Liquid | 397.3
381.38 K, Liquid | 397.5
382.35 K, Liquid | 397.8
383.43 K, Liquid | 398
384.34 K, Liquid | 398.2
385.25 K, Liquid | 398.5
386.14 K, Liquid | 398.8
387.09 K, Liquid | 399.1
388.01 K, Liquid | 399.5
388.98 K, Liquid | 399.7
389.95 K, Liquid | 399.9
